Test results published in patent publication US20220062258A1, “Heterocyclic derivatives” (Merck Patent GmbH, priority 2019, published 2022).

Tested on: HUVEC primary endothelial cells
Experiment: HUVEC proliferation assay (CyQUANT Direct)
Assay type: cell-based
Settings: Homo sapiens, 72 h, 3 days incubation
Protocol: HUVEC Proliferation Assay
Proliferation of HUVEC primary endothelial cells was used as cell-based mechanistical assay.^25 Applying the CyQUANT@ Direct Cell Proliferation Assay (Invitrogen C35011) which is based on a cell-permeant fluorescent DNA-binding dye, DNA content is used as a direct measure for cell number. Pooled HUVEC cells (Promocell C-12203) are cultivated in the medium supplied by Promocell (Cat No C-22020) for maximum 4 passages. For the assay 500 cells/well are seeded into black 384-well culture plates with clear bottom in 70 μl culture medium and incubated for 6 hours at 37° C., 5% CO2. 10 μl prediluted test compounds are added and cells incubated for 3 days at 37° C., 5% CO2 before measurement of DNA content. CyQUANT detection reagent is prepared according to the manufacturers protocol, 20 μl/well added and incubated at 37° C., 5% CO2 for at least 1 h before measurement of fluorescence at Envision multimode reader (Perkin-Elmer, Waltham) with excitation 480 nm and emission 535 nm (bottom read mode). The assay is performed as dose response with 10 compound dilutions. Inhibitory values (IC50) were determined using the program ASSAY ANALYZER® from GeneData (Basel, Switzerland).

| SMILES | IC50 |
| --- | --- |
| O=C1CCC(N2C(=O)c3ccc(NCCOCCOCCOCCNC(=O)c4cc5cc(N6CC[C@](O)(C(=O)NCc7cc(F)cc(F)c7)C6=O)ccc5[nH]4)cc3C2=O)C(=O)N1 (stereo partly drawn) [Compound A42, 5-[(3S)-3-{[(3,5-difluorophenyl)methyl]carbamoyl}-3-hydroxy-2-oxopyrrolidin-1-yl]-N-(2-{2-[2-(2-{[2-(2,6-dioxopiperidin-3-yl)-1,3-dioxo-2,3-dihydro-1H-isoindol-5-yl]amino}ethoxy)ethoxy]ethoxy}ethyl)-1H-indole-2-carboxamide] | 4.6 µM |
| O=C1CCC(N2C(=O)c3ccc(C#CCOCCOCCOCCOCCNC(=O)c4cc5cc(N6CC[C@](O)(C(=O)NCc7cc(F)cc(F)c7)C6=O)ccc5[nH]4)cc3C2=O)C(=O)N1 (stereo partly drawn) [Compound A43, 5-[(3S)-3-{[(3,5-difluorophenyl)methyl]carbamoyl}-3-hydroxy-2-oxopyrrolidin-1-yl]-N-{15-[2-(2,6-dioxopiperidin-3-yl)-1,3-dioxo-2,3-dihydro-1H-isoindol-5-yl]-3,6,9,12-tetraoxapentadec-14-yn-1-yl}-1H-indole-2-carboxamide] | 7.1 µM |
| O=C1CCC(N2C(=O)c3cccc(NCCOCCOCCOCCOCCNC(=O)c4cc5cc(N6CC[C@](O)(C(=O)NCc7cc(F)cc(F)c7)C6=O)ccc5[nH]4)c3C2=O)C(=O)N1 (stereo partly drawn) [Compound A44, 5-[(3S)-3-{[(3,5-difluorophenyl)methyl]carbamoyl}-3-hydroxy-2-oxopyrrolidin-1-yl]-N-(14-{[2-(2,6-dioxopiperidin-3-yl)-1,3-dioxo-2,3-dihydro-1H-isoindol-4-yl]amino}-3,6,9,12-tetraoxatetradecan-1-yl)-1H-indole-2-carboxamide] | 7 µM |
| CN(CCOCCOCCOCCOCCOCCN(C)c1cccc2c1C(=O)N(C1CCC(=O)NC1=O)C2=O)C(=O)c1cc2cc(N3CC[C@](O)(C(=O)NCc4cc(F)cc(F)c4)C3=O)ccc2[nH]1 (stereo partly drawn) [Compound A45, 5-[(3S)-3-{[(3,5-difluorophenyl)methyl]carbamoyl}-3-hydroxy-2-oxopyrrolidin-1-yl]-N-{2-[2-(2,6-dioxopiperidin-3-yl)-1,3-dioxo-2,3-dihydro-1H-isoindol-4-yl]-5,8,11,14,17-pentaoxa-2-azanonadecan-19-yl}-N-methyl-1H-indole-2-carboxamide] | 0.61 µM |
| O=C1CCC(N2C(=O)c3cccc(C#CCOCCOCCOCCOCCOCCNC(=O)c4cc5cc(N6CC[C@](O)(C(=O)NCc7cc(F)cc(F)c7)C6=O)ccc5[nH]4)c3C2=O)C(=O)N1 (stereo partly drawn) [Compound A46, 5-[(3S)-3-{[(3,5-difluorophenyl)methyl]carbamoyl}-3-hydroxy-2-oxopyrrolidin-1-yl]-N-{18-[2-(2,6-dioxopiperidin-3-yl)-1,3-dioxo-2,3-dihydro-1H-isoindol-4-yl]-3,6,9,12,15-pentaoxaoctadec-17-yn-1-yl}-1H-indole-2-carboxamide] | > 30 µM |
| CN(CCOCCOCCOCCOCCN(C)c1ccc2c(c1)C(=O)N(C1CCC(=O)NC1=O)C2=O)C(=O)c1cc2cc(N3CC[C@](O)(C(=O)NCc4cc(F)cc(F)c4)C3=O)ccc2[nH]1 (stereo partly drawn) [Compound A47, 5-[(3S)-3-{[(3,5-difluorophenyl)methyl]carbamoyl}-3-hydroxy-2-oxopyrrolidin-1-yl]-N-{2-[2-(2,6-dioxopiperidin-3-yl)-1,3-dioxo-2,3-dihydro-1H-isoindol-5-yl]-5,8,11,14-tetraoxa-2-azahexadecan-16-yl}-N-methyl-1H-indole-2-carboxamide] | 0.24 µM |
| O=C1CCC(N2C(=O)c3ccc(NCCOCCOCCOCCN4CCN(C(=O)c5cc6cc(N7CC[C@](O)(C(=O)NCc8cc(F)cc(F)c8)C7=O)ccc6[nH]5)CC4)cc3C2=O)C(=O)N1 (stereo partly drawn) [Compound A48, (3S)—N-[(3,5-difluorophenyl)methyl]-1-{2-[4-(2-{2-[2-(2-{[2-(2,6-dioxopiperidin-3-yl)-1,3-dioxo-2,3-dihydro-1H-isoindol-5-yl]amino}ethoxy)ethoxy]ethoxy}ethyl)piperazine-1-carbonyl]-1H-indol-5-yl}-3-hydroxy-2-oxopyrrolidine-3-carboxamide] | 0.085 µM |
